Results on 4 compounds are retold here after patent publication US20120220581A1, “IMIDAZO[1,2-b]PYRIDAZINE DERIVATIVES AND THEIR USE AS PDE10 INHIBITORS” (Janssen-Cilag, S.A., priority 2009, published 2012).

Like-named read-outs stand apart in the source and are kept apart here.

For orientation: ED50 means the midpoint of the dose-response relation. Low values mean greater potency, high ones weaker potency. One may read the melting point as the temperature of the solid-liquid transition.

The subject of data set [1] is female hooded-Lister rats. Kind of data set: Object recognition test (NOR) after sub-chronic PCP. The format is in vivo, rat. The procedure: 60 female hooded-Lister rats (Charles River, UK) were used as subjects for these studies and weighed 248 g±20 g. Rats were allowed at least a 7-day acclimatization period to the animal unit prior to commencement of experimentation. Rats were housed in groups of 5 under standard laboratory conditions under a 12 h light:dark cycle, lights on at 0700 h. All testing was carried out in the light phase. Food and water were freely provided. All experiments were conducted in accordance with the Animals Scientific Procedures Act, U.K. 1986 and were approved by the University of Bradford ethical review panel.
40 mg of test compound was dissolved in 5 ml of 40% hydroxypropyl β-cyclodextrin (HPBC) solution. The solution was sonicated until completely dissolved. 2 ml of sterile water was added and the pH measured and adjusted with NaOH solution (0.1N) to obtain pH ˜4. Finally, sterile water was added to a final volume of 10 ml. This stock solution was then diluted in 20% HPBC to obtain the final concentrations. 100 mg of PQ10 was dissolved in a 40% HPBC solution and 8 mg of tartaric acid. The solution was sonicated until completely dissolved. 5 ml of sterile water was added and the pH measured and adjusted with NaOH solution (0.1N) to obtain pH ˜4. Finally sterile water was added to a final volume of 10 ml.
Test compound was administered at doses of 0.3 and 1.0 mg/kg via the oral route 30 min prior to testing.
PQ10 was administered at a dose of 1.0 mg/kg via the oral route 30 min prior to testing.
Certain pre-clinical tests allow the observation of relatively subtle cognitive deficits in the rat that resemble cognitive symptoms in subjects with schizophrenia. The cognitive deficits observed are seen in behaviours such as episodic memory, which can be measured by recognition tasks such as the novel object recognition (NOR) paradigm. A recognition memory task allows the comparison between presented stimuli and previously stored information. Ennaceur, A Delacour, J (1988) A new one-trial test for neurobiological studies of memory in rats Behav Brain Res 31: 47-59 described the NOR test in rats which was based on the differential exploration of familiar and new objects. The NOR test is a non-rewarded, ethologically relevant paradigm based on the spontaneous exploratory behaviour of rats that measures episodic memory. Each session consists of two trials. In the first trial, the rats are exposed to two identical objects in an open field. During the second trial, rats are exposed to two dissimilar objects, one familiar object from the first trial and one new object. Object recognition in rats can be measured as the difference in time spent exploring the familiar and the new object. […] The duration of each trial is also important as a preference for the novel object only lasts during the first 1 or 2 minutes, after which time preference diminishes as both objects become familiar and are explored equally.
Rats were randomly assigned to the 8 treatment groups
Rats were allowed to habituate to the empty test box and the behavioural test room environment for 1 h on day 1. Prior to behavioural testing on day 2 rats were given a further 3 min habituation.
Following the 3 min habituation period, the rats were given two 3 min trials (T1 and T2) which were separated by a 1 min inter-trial interval in the home cage during which the objects were changed.
In this trial, the animals were allowed to explore two identical objects (A1 and A2) for 3 min.
In this trial, the animals explored a familiar object (A) from T1 and a novel object (B) for 3 min. The familiar object presented during T2 was a duplicate of the object presented in T1 in order to avoid any olfactory trails.
The object exploration was defined by animals licking, sniffing or touching the object with the forepaws whilst sniffing, but not leaning against, turning around, standing or sitting on the object. […]

Data set [2] concerns female hooded-Lister rats. The data set is described as above. The format is in vivo, rat. The following applies: PCP + 1 mg/kg p.o., Day 1, 3 min retention trial, mean.
The target in data set [3] is T1, Rat recombinant PDE10A (rPDE10A2) (Rattus norvegicus, UniProt Q9QYJ6).
T1 construct: inferred from the Ni metal chelate purification; made in house; host or cells: Sf9 insect cells (baculovirus)
T1 sequence (Q9QYJ6 1-794): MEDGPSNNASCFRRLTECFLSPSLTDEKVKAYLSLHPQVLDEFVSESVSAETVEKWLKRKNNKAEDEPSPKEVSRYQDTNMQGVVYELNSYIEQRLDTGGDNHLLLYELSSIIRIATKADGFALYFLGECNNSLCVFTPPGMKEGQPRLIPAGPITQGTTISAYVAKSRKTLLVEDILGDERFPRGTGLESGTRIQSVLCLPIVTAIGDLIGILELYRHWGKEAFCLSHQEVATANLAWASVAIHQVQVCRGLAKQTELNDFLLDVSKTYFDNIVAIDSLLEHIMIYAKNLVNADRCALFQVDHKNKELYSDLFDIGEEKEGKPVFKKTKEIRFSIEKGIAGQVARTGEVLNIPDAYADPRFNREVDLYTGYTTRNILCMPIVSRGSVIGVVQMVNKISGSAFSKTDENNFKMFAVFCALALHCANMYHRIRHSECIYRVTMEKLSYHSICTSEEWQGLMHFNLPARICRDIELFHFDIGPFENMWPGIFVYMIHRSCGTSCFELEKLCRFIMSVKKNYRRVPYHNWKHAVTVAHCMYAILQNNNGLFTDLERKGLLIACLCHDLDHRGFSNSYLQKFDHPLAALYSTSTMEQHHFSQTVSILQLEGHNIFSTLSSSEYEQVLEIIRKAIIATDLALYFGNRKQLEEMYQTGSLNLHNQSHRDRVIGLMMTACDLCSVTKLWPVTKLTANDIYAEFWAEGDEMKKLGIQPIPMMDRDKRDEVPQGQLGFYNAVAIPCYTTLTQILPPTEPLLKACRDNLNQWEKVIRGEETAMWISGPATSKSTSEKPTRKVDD
Nature of the data set: In vitro assay PDE10A (SPA, 3H-cAMP). The format is biochemical. Put shortly:
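Rat PDE10A2 expressed in Sf9 cells and Ni-purified; incubated with 60 nM cAMP plus 0.008 μCi 3H-cAMP in 50 mM Tris pH 7.8, 8.3 mM MgCl2, 1.7 mM EGTA for 60 min at room temperature. Product quantified by scintillation proximity counting; final DMSO 1%.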

In data set [4] the test system is apomorphine-induced stereotypy in rats. Nature of the data set: Apomorphine-induced stereotypy in rats (APO). The settings on record: Rattus norvegicus. The format is in vivo. The procedure:
Apomorphine (1.0 mg/kg, i.v.)-induced stereotypy (compulsive sniffing, licking, chewing) was scored every 5 min over the first hour after injection of apomorphine, following a 1 hour interval pre-treatment with the test compound. The score system was: (3) pronounced, (2) moderate, (1) slight, and (0) absent.

The target in another data set is PDE4D3 (Homo sapiens, UniProt Q08499). Kind of data set: In vitro PDE selectivity assay (SPA), PDE4D3. The format is biochemical. The settings on record: hPDE4D3; read-out: PDE 4D3 (expressed as pIC50) (converted). A digest of the protocol: (§1)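 Inhibition of each PDE isoform was measured by scintillation proximity assay with ³H-cyclic nucleotide substrate, using incubation buffer, substrate concentration, incubation time and stop solution adapted per isoform. Compounds were tested in dose-response against 1% DMSO controls and enzyme-free blanks. IC50 came from a least-squares fit of blank-subtracted % of control versus concentration.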
Sequence of PDE4D3 (Q08499 1-673 isoform Q08499-2): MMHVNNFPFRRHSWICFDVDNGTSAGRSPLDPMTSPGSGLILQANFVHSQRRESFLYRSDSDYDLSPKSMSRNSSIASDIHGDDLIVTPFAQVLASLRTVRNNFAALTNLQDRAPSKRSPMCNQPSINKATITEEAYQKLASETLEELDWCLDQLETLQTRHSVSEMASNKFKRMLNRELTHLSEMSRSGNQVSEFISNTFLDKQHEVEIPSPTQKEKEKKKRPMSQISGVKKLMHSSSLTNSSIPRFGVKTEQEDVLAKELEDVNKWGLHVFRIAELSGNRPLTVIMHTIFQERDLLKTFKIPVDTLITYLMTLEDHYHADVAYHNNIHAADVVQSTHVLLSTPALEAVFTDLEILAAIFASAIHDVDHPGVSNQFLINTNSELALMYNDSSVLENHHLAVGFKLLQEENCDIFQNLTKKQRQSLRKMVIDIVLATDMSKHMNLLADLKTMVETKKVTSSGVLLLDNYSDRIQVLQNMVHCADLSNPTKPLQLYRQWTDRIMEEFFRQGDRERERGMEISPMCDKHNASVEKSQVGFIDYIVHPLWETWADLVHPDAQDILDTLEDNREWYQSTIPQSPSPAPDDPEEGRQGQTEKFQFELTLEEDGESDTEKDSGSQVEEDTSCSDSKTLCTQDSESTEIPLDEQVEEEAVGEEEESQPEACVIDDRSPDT

Another data set concerns the target PDE5A3 (Homo sapiens, UniProt O76074). Nature of the data set: In vitro PDE selectivity assay (SPA), PDE5A3. The settings on record: hPDE5A3; read-out: PDE 5A3 (expressed as pIC50) (converted). It is filed as biochemical. A digest of the protocol:
as §1

Data set [5] deals with other members of the PDE family (Homo sapiens, UniProt O00408). Nature of the data set: In vitro PDE selectivity assay (SPA), other members of the PDE family (protocols in Table A). The format is biochemical. The settings on record: hPDE2A; read-out: PDE 2A (expressed as pIC50) (converted). A digest of the protocol:
as §1

Data set [6] concerns the target other members of the PDE family (Homo sapiens, UniProt O60658). Described as above. The format is biochemical. The settings on record: hPDE8A1; read-out: PDE 8A1 (expressed as pIC50) (converted). A digest of the protocol: as §1
Data set [7] concerns the target other members of the PDE family (Homo sapiens, UniProt O76083). Described as above. It is filed as biochemical. The settings on record: hPDE9A; read-out: PDE 9A (expressed as pIC50) (converted). A digest of the protocol:
as §1

Data set [8] concerns the target other members of the PDE family (Homo sapiens, UniProt P16499+P35913). The description is as above. The format is biochemical. The following applies: hPDE6AB; read-out: PDE 6AB (expressed as pIC50) (converted). A digest of the protocol:
as §1

The target of data set [9] is other members of the PDE family (Homo sapiens, UniProt Q13946). The description is as above. The following applies: hPDE7A1; read-out: PDE 7A (expressed as pIC50) (converted). It is filed as biochemical. A digest of the protocol: as §1
Sequence of other members of the PDE family (Homo sapiens, UniProt Q13946) (Q13946 whole entry): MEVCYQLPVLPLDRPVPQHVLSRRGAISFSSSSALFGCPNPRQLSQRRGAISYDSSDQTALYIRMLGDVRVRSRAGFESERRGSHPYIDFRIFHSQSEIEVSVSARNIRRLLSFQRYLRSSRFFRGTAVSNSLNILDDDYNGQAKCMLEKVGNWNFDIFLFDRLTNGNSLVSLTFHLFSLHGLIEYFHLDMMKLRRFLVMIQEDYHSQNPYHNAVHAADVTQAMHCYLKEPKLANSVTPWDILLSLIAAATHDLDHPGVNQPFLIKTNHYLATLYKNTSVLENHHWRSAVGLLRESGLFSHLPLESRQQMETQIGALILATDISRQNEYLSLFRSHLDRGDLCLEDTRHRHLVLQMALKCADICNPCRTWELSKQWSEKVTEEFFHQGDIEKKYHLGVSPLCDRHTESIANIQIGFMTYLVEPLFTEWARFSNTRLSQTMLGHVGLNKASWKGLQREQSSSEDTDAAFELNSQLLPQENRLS
Data set [10] has as its target other members of the PDE family (Homo sapiens, UniProt Q14432). Described as above. It is filed as biochemical. The following applies: hPDE3A; read-out: PDE 3A (expressed as pIC50) (converted). A digest of the protocol: as §1
Data set [11] concerns the target other members of the PDE family (Homo sapiens, UniProt Q9HCR9). The description is as above. The format is biochemical. The following applies: hPDE11A4; read-out: PDE 11A4 (expressed as pIC50) (converted). Put shortly: as §1
A further data set addresses PDE1B1 (Homo sapiens, UniProt Q01064). Nature of the data set: In vitro PDE selectivity assay (SPA), PDE1B1. The format is biochemical. The following applies: hPDE1B1; read-out: PDE 1B1 (expressed as pIC50) (converted).
Where [12] appears, read: pIC50 corresponds to the −log IC50 expressed in mol/L, read-out: PDE10A2 pIC50 (converted).
[13] abbreviates: Table 4 in vitro selectivity, read-out: PDE 10A2 (expressed as pIC50) (converted).
Where [14] appears, read: dose at which 50% of the tested animals show the effect, ≧: active in 30% of the animals at the indicated dose, ≦: active in 60%.

Sequence of other members of the PDE family (Homo sapiens, UniProt O00408) (O00408 whole entry): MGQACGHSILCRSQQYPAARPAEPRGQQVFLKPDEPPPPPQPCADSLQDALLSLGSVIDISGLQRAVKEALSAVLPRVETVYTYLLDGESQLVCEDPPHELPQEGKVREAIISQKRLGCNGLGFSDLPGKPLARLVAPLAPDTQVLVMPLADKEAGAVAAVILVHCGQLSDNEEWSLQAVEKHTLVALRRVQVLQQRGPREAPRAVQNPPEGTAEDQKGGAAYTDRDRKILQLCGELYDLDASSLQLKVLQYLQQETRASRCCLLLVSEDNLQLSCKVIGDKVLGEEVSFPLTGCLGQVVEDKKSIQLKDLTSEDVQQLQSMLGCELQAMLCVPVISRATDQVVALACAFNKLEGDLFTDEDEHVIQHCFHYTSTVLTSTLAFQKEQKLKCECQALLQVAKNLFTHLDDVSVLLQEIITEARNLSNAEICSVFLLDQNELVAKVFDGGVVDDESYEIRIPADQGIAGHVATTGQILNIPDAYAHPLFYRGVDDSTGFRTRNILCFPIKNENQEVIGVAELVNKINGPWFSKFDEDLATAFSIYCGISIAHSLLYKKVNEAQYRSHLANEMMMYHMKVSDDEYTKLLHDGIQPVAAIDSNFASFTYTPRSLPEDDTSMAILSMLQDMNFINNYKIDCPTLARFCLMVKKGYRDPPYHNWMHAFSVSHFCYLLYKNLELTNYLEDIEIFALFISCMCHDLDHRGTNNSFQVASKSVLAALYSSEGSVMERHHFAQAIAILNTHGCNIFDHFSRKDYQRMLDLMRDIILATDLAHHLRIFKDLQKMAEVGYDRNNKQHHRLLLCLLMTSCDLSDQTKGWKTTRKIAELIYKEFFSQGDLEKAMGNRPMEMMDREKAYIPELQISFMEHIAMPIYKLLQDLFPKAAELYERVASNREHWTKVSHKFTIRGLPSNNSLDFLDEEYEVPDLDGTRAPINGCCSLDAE
Sequence of other members of the PDE family (Homo sapiens, UniProt Q9HCR9) (Q9HCR9 whole entry): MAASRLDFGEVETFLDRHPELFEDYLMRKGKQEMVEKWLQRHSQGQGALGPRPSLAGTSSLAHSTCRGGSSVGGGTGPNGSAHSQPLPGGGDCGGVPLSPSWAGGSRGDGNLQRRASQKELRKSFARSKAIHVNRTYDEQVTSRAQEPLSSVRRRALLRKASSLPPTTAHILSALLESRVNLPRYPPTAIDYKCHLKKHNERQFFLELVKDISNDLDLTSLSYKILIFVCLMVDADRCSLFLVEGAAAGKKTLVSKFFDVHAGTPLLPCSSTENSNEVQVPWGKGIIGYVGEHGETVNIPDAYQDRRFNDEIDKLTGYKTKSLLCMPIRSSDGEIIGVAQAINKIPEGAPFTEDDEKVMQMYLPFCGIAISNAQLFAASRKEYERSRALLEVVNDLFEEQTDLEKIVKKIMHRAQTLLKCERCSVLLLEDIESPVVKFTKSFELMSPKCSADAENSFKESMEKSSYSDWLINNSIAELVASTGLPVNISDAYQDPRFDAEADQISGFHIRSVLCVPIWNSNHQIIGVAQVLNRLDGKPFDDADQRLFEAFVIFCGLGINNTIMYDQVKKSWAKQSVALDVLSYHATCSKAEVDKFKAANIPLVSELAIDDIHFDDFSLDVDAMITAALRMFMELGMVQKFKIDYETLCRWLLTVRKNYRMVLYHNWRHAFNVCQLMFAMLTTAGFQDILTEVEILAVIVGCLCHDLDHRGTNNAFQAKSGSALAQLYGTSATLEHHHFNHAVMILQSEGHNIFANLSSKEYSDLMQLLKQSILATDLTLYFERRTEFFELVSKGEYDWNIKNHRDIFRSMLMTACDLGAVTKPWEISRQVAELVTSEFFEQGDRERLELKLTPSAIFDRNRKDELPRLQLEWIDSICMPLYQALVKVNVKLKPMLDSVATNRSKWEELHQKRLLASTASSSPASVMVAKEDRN
Sequence of other members of the PDE family (Homo sapiens, UniProt O76083) (O76083 whole entry): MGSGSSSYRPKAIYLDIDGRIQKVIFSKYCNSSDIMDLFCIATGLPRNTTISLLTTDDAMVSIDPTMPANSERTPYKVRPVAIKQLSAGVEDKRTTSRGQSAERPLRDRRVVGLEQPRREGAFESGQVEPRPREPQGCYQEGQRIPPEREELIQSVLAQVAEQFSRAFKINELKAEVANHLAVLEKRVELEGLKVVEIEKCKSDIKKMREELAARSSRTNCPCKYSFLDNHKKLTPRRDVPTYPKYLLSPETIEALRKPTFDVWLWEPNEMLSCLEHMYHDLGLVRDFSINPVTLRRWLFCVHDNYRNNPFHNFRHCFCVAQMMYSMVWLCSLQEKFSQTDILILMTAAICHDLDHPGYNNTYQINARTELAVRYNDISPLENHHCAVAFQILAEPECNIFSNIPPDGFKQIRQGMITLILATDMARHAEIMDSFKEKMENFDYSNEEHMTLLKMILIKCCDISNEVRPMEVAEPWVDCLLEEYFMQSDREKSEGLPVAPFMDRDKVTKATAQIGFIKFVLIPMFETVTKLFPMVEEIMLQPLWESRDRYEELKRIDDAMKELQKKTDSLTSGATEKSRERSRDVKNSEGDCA
Sequence of other members of the PDE family (Homo sapiens, UniProt Q14432) (Q14432 whole entry): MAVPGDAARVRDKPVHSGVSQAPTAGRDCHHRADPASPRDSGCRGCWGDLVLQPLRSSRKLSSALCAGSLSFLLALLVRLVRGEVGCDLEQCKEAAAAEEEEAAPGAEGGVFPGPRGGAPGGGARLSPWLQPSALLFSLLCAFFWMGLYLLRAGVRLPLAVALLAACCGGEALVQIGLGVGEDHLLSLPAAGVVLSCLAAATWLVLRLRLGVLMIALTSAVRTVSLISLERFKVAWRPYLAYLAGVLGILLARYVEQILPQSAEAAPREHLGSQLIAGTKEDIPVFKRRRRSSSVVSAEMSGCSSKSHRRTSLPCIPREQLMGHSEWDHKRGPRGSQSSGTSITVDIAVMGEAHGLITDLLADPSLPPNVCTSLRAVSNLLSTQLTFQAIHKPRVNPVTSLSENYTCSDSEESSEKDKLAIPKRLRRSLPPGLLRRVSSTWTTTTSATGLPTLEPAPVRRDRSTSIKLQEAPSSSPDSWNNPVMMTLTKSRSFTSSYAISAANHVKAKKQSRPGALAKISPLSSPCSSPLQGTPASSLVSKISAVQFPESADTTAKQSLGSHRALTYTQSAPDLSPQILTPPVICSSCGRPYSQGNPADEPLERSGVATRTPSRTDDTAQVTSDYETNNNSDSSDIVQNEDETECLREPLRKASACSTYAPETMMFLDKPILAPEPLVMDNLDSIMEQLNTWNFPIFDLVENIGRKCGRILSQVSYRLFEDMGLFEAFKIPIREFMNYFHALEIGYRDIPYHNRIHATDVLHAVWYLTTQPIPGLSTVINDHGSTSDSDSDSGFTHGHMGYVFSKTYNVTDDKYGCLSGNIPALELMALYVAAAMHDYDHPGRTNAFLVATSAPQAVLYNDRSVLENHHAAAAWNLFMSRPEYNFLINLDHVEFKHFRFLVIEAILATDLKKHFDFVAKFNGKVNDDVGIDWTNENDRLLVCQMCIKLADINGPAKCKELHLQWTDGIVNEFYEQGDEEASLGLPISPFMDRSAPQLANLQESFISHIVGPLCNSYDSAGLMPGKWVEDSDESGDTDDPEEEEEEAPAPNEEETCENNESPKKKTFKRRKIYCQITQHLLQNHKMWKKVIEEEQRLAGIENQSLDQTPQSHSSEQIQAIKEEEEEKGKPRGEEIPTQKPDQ

As to `COc1cc2ncnc(N3CC[C@@H](Oc4cnc5ccccc5n4)C3)c2cc1OC` [PQ10, reference compound], in [1] (PCP + 1 mg/kg p.o., mean), the “DI (discrimination index)” value is 0.4193 and the “LMA (no. of lines crossed)” value is 65.5 no. of lines crossed. For the same compound, the “effects of acute treatment in the NOR task” value in [1] (acute treatment, oral route 30 min prior to testing, compound 1 0.3-1.0 mg/kg, PQ10 1.0 mg/kg, sub-chronic PCP female rats) is “selective for the retention phase”. In addition, in data set [2], the “T2(A) exploration time of familiar object, retention trial” value was 7.9 s and the “T2(B) exploration time of novel object, retention trial” value is 19.9 s.
Turning to `Cc1nc2c(-c3ccncc3)ccnn2c1-c1ccc(N2CCOCC2)nc1` [compound 31, 2-methyl-3-[6-(4-morpholinyl)-3-pyridinyl]-8-(4-pyridinyl)-imidazo[1,2-b]pyridazine], the melting point is > 300 °C (dec.). Further, the IC50 in data set [3] (setting [12]) is 0.0603 µM. Also, the ED50 in data set [4] (n.d.: found not active at threshold dose 2.5 mg/kg or 10 mg/kg (a), not further tested) was more than 2.5 mg/kg.
As to `COCCn1cc(-c2c(C)nc3c(N4CCOCC4)ccnn23)cn1` [compound 36, 3-[1-(2-methoxyethyl)-1H-pyrazol-4-yl]-2-methyl-8-(4-morpholinyl)-imidazo[1,2-b]pyridazine], the IC50 was 0.0562 µM in [3] (setting [13]); 0.0562 µM in [3] (setting [12]); more than 10 µM on PDE4D3; more than 10 µM at PDE5A3; more than 10 µM in data set [5]; more than 10 µM in data set [6]. For the same compound, the IC50 in data set [7], in data set [8], in data set [9], in data set [10] and in data set [11] was more than 10 µM each time. In data set [4] (setting [14]), the 50% effective dose (ED50) is 5 mg/kg.
On to `c1cc(-c2ccnn3c(-c4ccc(N5CCOCC5)nc4)cnc23)ccn1` [compound 61, 3-[6-(4-morpholinyl)-3-pyridinyl]-8-(4-pyridinyl)-imidazo[1,2-b]pyridazine], for which the IC50 in data set [3] (setting [13]) was 0.339 µM; in data set [3] (setting [12]), 0.339 µM; at PDE1B1 it was more than 10 µM; on PDE4D3, more than 10 µM; on PDE5A3 it was 2.69 µM; in data set [5], 7.94 µM. Further, the IC50 in data set [7], in data set [9], in data set [10] and in [11] was more than 10 µM each time. This compound gave an ED50 in [4] (setting [14]) of 1.2 mg/kg.
